Experimental data: patent publication US20260297081A1, “COMPOUNDS AND METHODS OF TREATING CANCERS” (Cullgen Inc., priority 2023, published 2026)

Experiments:
Assay type in all cases: cell-based
[1] = test system: T47D palbo-resistant cells; assay: Cell viability in T47D palbociclib-resistant model (FIG. 4); settings: 10-point serial dilution, 6 days
Experimental: T47D cells were cultured long-term to resistance in the presence of 1 μM Palbociclib. Palbo resistance was determined by CellTiter-Lumi cell viability assay. T47D parental or palbo-resistant cells were treated with palbociclib, or heterobifunctional compounds CPD-10 or CPD-39 following a 10-point serial dilution for 6 days.
(§1) Calu-1, T47D, MCF7, HCC1428 and other cells were cultured at 37° C. with 5% CO2 in RPMI 1640 or DMEM medium supplemented with 10% fetal bovine serum. Cells were authenticated using the short tandem repeat (STR) assays. Mycoplasma test results were negative. For palbo-resistant cell model, T47D cells were cultured long-term to resistance in the presence of 1 μM Palbociclib. Cells were deemed resistant when growing in the presence of Palbo at the same rate as parental cells.
Cells were seeded at a density of 2,000-5,000 cells per well in 96-well assay plates and treated with test compounds following a 10-point serial dilution for 3-6 days. Cell viability was determined using the CellTiter-Lumi assay kit according to the manufacturer's instructions. The dose-response curves were determined and IC50 values were calculated using the GraphPad Prism software following a nonlinear regression (least squares fit) method. Data presented was mean±standard deviation (SD)unless otherwise indicated.

p-Rb = assay: Immunoblotting of Rb phosphorylation (FIG. 1A-1B); settings: Calu-1 (4 hours), MCF7 (24 hours)
Experimental: (§2) Calu-1 cells were treated with heterobifunctional compound CPD-10, or CDK4/6 inhibitor palbociclib at indicated concentrations for 4 hours (FIG. 1A). MCF7 cells were deprived of serum for 2 hours followed by treatment with CPD-10, or palbociclib at indicated concentrations for 24 hours (FIG. 1B).
(§3) Antibody and Reagent Anti-cyclin D1 (29785), anti-cyclin D2 (3741S), anti-cyclin D3 (2936S), anti-CDK4 (127905), anti-CDK6 (3136S), anti-phospho-Rb (8516S), anti-FoxM1 (54365), anti-cyclinA2(4656S), anti-vinculin antibody (187995) antibodies were purchased from Cell Signaling Technology. HRP-conjugated anti-α-tubulin antibody and anti-α-GAPDH antibody were purchased from GNI. Media, and other cell culture reagents were purchased from Thermo Fisher Scientific. CellTiter-Glo Luminescent Assay kit was purchased from Promega.
(§4) Calu-1, T47D, MCF7, HCC1428 and other cells were cultured at 37° C. with 5% CO2 in RPMI 1640 or DMEM medium supplemented with 10% fetal bovine serum. Cells were authenticated using the short tandem repeat (STR) assays. […]
(§5) Cultured cells were washed with cold PBS once and lysed in cold RIPA buffer supplemented with protease inhibitors and phosphatase inhibitors (Beyotime Biotechnology). […] Total protein concentrations in the lysates were determined following BCA assays (Beyotime Biotechnology). […] Protein bands were quantitated using the Image Lab software provided by Bio-Rad.

Calu-1 cells = assay: Anti-proliferation (viability) of NSCLC Calu-1 cells, 3 days (Table 7, FIG. 2B); settings: Homo sapiens, 72 h; Calu-1 cells, 3 days, 10-point serial dilution; read-out: GI IC50 in Calu-1
Summary of the method: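 Treatment length differs by line: Calu-1 cells receive degrader for 3 days, T47D cells for 6 days, each over a 10-point dilution series. A warhead-modified analogue with unchanged DDB1 binder and linker served as the non-CDK4-binding control.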

FoxM1 = assay: Immunoblotting of FoxM1 protein level (FIG. 1A-1B); settings: Calu-1 (4 hours), MCF7 (24 hours)
Experimental: as §2, §3, §4, §5

[2] = test system: CCND1, CCND3, and CDK4 in MCF7 cells; assay: Immunoblot of CCND1, CCND3 and CDK4 protein levels in MCF7 cells under serum starvation (FIG. 1B, 24 hours); settings: MCF7, reduction of CCND1, CCND3, and CDK4 protein levels, serum starvation, 24 hours
Experimental: (§6) Specific exemplary heterobifunctional compounds were characterized in Calu-1, MCF7, T47D and other cells. Cells that express cyclin D1-3 and CDK4/6 proteins were treated with heterobifunctional compounds disclosed herein at indicated concentrations. MCF7 cells were deprived of serum for 2 hours followed by the treatment with heterobifunctional compounds. Cells were collected, lysed and subject to immunoblotting using an antibody specific to CCND1, CCND2, CCND3, CDK4, or FoxM1, cyclin A2, or phosphorylated Rb (S807/811) proteins. Tubulin or GAPDH was used as the loading control. DMSO treatment was used as the negative control.

CCND3 = assay: Immunoblotting of CCND3 protein level in Calu-1 and MCF7 cells (FIG. 1A-1B)
Experimental: as §2, §3, §1
(§7) Cultured cells were washed with cold PBS once and lysed in cold RIPA buffer supplemented with protease inhibitors and phosphatase inhibitors (Beyotime Biotechnology). The solutions were then incubated at 4 ? for 30 min with gentle agitation to fully lysed cells. Cell lysates were centrifuged at 13,000 rpm for 10 min at 4 ? and pellets were discarded. Total protein concentrations in the lysates were determined following BCA assays (Beyotime Biotechnology). Cell lysates were mixed with Laemmli loading buffer and heated at 99° C. for 5 min. Proteins were resolved on SDS-PAGE and visualized using Western ECL Substrate kits on a ChemiDoc MP Imaging system (Bio-Rad). Protein bands were quantitated using the Image Lab software provided by Bio-Rad.

CCND1 = assay: Immunoblotting of CCND1 protein level in Calu-1 and MCF7 cells (FIG. 1A-1B)
Experimental: as §2, §3, §1, §7

[3] = test system: CCND1, CCND3, and CDK4 in Calu-1 cells; assay: Immunoblot of CCND1, CCND3 and CDK4 protein levels in Calu-1 cells (FIG. 1A, 4 hours); settings: Calu-1, reduction of CCND1, CCND3, and CDK4 protein levels
Experimental: as §6

[4] = MCF7 cells, serum deprived 2 hours, treated 24 hours

SMILES: CNc1ccc(C(=O)Nc2ccc(N(C)C)nn2)c(NCCCCCCCNC(=O)CN2CCN(c3ccc(Nc4ncc5c(C)c(C(C)=O)c(=O)n(C6CCCC6)c5n4)nc3)CC2)n1 [CPD-10, 2-((7-(2-(4-(6-((6-acetyl-8-cyclopentyl-5-methyl-7-oxo-7,8-dihydropyrido[2,3-d]pyrimidin-2-yl)amino)pyridin-3-yl)piperazin-1-yl)acetamido)heptyl)amino)-N-(6-(dimethylamino)pyridazin-3-yl)-6-(methylamino)nicotinamide]
- cell viability in palbociclib-resistant model [1]: remained effective in T47D palbo-resistant model
- Rb phosphorylation (p-Rb): inhibited downstream FoxM1 and cyclin A2 protein levels, and Rb phosphorylation in a concentration-dependent manner
- IC50 (Calu-1 cells): ≤ 10 nM
- FoxM1 protein level (FoxM1): inhibited downstream FoxM1 and cyclin A2 protein levels, and Rb phosphorylation in a concentration-dependent manner
- DC50 [2]: < 20 nM
- CCND3 protein level (CCND3; Calu-1 cells, 4 hours): reduced CCND1, CCND3, and CDK4 protein levels in a concentration-dependent manner in both cell lines
- CCND3 protein level (CCND3; [4]): reduced CCND1, CCND3, and CDK4 protein levels in a concentration-dependent manner in both cell lines
- CCND1 protein level (CCND1; Calu-1 cells, 4 hours): reduced CCND1, CCND3, and CDK4 protein levels in a concentration-dependent manner in both cell lines
- CCND1 protein level (CCND1; [4]): reduced CCND1, CCND3, and CDK4 protein levels in a concentration-dependent manner in both cell lines
- DC50 [3]: < 5 nM
